From patent US20020028836A1, “Potassium channel openers” (priority 2000, published 2002)

How the values were obtained:
[1] = tested on: primary cultured guinea-pig urinary bladder (GPB) cells; test: Membrane hyperpolarization (MHP) assay, DiBAC(4)3 / FLIPR; format: cell-based; details: Cavia porcellus; for EC50: concentration that elicits 50% of the maximal response for the test sample; for Emax: maximal steady-state hyperpolarization, normalized to response with 10 μM P1075 (100%)
Method in brief: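 Primary smooth-muscle cells from male guinea-pig bladder, grown to confluence, loaded 30 min at 37° C with 5 μM DiBAC(4)3 in HEPES buffer pH 7.4. Fluorescence drop on FLIPR followed 25 min after compound; steady-state hyperpolarization normalized to 10 μM P1075 (100%), EC50 from four-parameter fit of five concentrations.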

[2] = tested on: tissue strips obtained from Landrace pig bladders; test: Functional potassium channel opening activity in isolated bladder strips (field-stimulated twitch); details: for Index: ED50 for P1075 divided by ED50 for the test agonist in a given tissue, averaged; for EC50 / Emax: Sus scrofa; for EC50: amount of agent necessary to cause 50% of the agent's maximal response, read-out: ED50 (the source's name); for Emax: maximal efficacy relative to P1075, field stimulation 0.05 Hz, 0.5 ms, 20 volts
Method in brief: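 Mucosa-free female Landrace pig bladder strips in Krebs Ringer bicarbonate (pH 7.4, 37° C., 0.004 mM propranolol), 1.0 g preload, field-stimulated at 0.05 Hz, 0.5 ms, 20 V for twitch. Cumulative concentration-response curves; maximal efficacy as % of P1075, ED50 fitted, potency index = P1075 ED50/test ED50 per tissue, averaged.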

| SMILES | melting point | further results |
| --- | --- | --- |
| Cc1ccc(C(=O)NC(NC(=S)Nc2ccccc2C)C(F)(F)F)cc1 (stereo not drawn) [Example 2, 4-methyl-N-{2,2,2-trifluoro-1-[(2-toluidinocarbothioyl)amino]ethyl}benzamide] | 210 to 211 °C | – |
| Cc1ccc(C(=O)N[C@@H](COC(C)(C)C)NC(=S)Nc2cccc([N+](=O)[O-])c2)cc1 [Example 31, N-((1R)-2-(tert-butoxy)-1-{[(3-nitroanilino)carbothioyl]amino}ethyl)-4-methylbenzamide] | 169 to 171 °C | – |
| N#CN=C(Nc1cccnc1)NC(NC(=O)c1ccc(Cl)cc1)C1CC1 (stereo not drawn) [Example 54, 4-chloro-N-[{[(cyanoimino)(3-pyridinylamino)methyl]amino}(cyclopropyl)methyl]benzamide] | 137 to 139 °C | – |
| N#CN=C(Nc1cccc(F)c1)NC(NC(=O)c1ccc(Cl)cc1)c1ccsc1 (stereo not drawn) [Example 56, 4-chloro-N-[{[(cyanoimino)(3-fluoroanilino)methyl]amino}(3-thienyl)methyl]benzamide] | 166 to 168 °C | – |
| CN(C(=NC#N)Nc1cccnc1)C(NC(=O)c1ccc(Cl)cc1)C(C)(C)C (stereo not drawn) [Example 111, 4-chloro-N-{1-[[(cyanoimino)(3-pyridinylamino)methyl](methyl)amino]-2,2-dimethylpropyl}benzamide] | 127 to 129 °C | – |
| N#CN=C(Nc1cccnc1)NC(NC(=O)c1ccc(I)cc1)C(Cl)(Cl)Cl (stereo not drawn) [Example 114, 4-iodo-N-(2,2,2-trichloro-1-{[(cyanoimino)(3-pyridinylamino)methyl]amino}ethyl)benzamide] | 208 to 210 °C | – |
| CCCC(Cl)(Cl)C(NC(=O)c1ccc(Cl)cc1)NC(=NC#N)Nc1cccnc1 (stereo not drawn) [Example 115, 4-chloro-N-(2,2-dichloro-1-{[(cyanoimino)(3-pyridinylamino)methyl]amino}pentyl)benzamide] | 192 to 193 °C | – |
| N#CN=C(Nc1cccnc1)NC(NC(=O)c1cccc(Cl)c1)C(F)(F)C(F)(F)F (stereo not drawn) [Example 122, 3-chloro-N-(1-{[(cyanoimino)(3-pyridinylamino)methyl]amino}-2,2,3,3,3-pentafluoropropyl)benzamide] | 183 to 185 °C | – |
| C=CC(C)(C)CC(NC(=O)c1ccc(Cl)cc1)NC(=N[N+](=O)[O-])Nc1cccnc1 (stereo not drawn) [Example 133, 4-chloro-N-(1-{[(nitroimino)(3-pyridinylamino)methyl]amino}-3,3-dimethyl-4-pentenyl)benzamide] | – | EC50 [1]: 39 nM; Emax [1]: 106%; Index [2]: 0.039; EC50 [2]: 8400 nM; Emax [2]: 58% |
| CCCC(Cl)(Cl)C(NC(=O)c1ccc(Cl)cc1)NC(=N[N+](=O)[O-])Nc1cccnc1 (stereo not drawn) [Example 136, 4-chloro-N-(2,2-dichloro-1-{[(nitroimino)(3-pyridinylamino)methyl]amino}pentyl)benzamide] | 198 to 200 °C | – |
| CC(Cl)(Cl)C(NC(=O)c1ccc(Cl)cc1)NC(=N[N+](=O)[O-])Nc1cccnc1 (stereo not drawn) [Example 137, 4-chloro-N-(2,2-dichloro-1-{[(nitroimino)(3-pyridinylamino)methyl]amino}propyl)benzamide] | 170 to 172 °C | – |
| CC(Cl)(Cl)C(NC(=O)c1cccc(Cl)c1)NC(=N[N+](=O)[O-])Nc1cccnc1 (stereo not drawn) [Example 138, 3-chloro-N-(2,2-dichloro-1-{[(nitroimino)(3-pyridinylamino)methyl]amino}propyl)benzamide] | 160 to 161 °C | – |
| CC(C)(C)C(NC(=O)c1ccc(Cl)cc1)NC(=NS(=O)(=O)c1ccccc1)Nc1cccnc1 (stereo not drawn) [Example 139, 4-chloro-N-(2,2-dimethyl-1-{[[(phenylsulfonyl)imino](3-pyridinylamino)methyl]amino}propyl)benzamide] | 196 to 197 °C | – |
| CC(C)(C)CC(NC(=O)c1ccc(Cl)cc1)NC(=NS(=O)(=O)c1ccccc1)Nc1cccnc1 (stereo not drawn) [Example 140, 4-chloro-N-(3,3-dimethyl-1-{[[(phenylsulfonyl)imino](3-pyridinylamino)methyl]amino}butyl)benzamide] | 199 to 200 °C | – |
| CC(C)(C)C(NC(=O)Nc1ccccc1F)NC(=O)c1ccc(Cl)cc1 (stereo not drawn) [Example 147, 4-chloro-N-(1-{[(2-fluoroanilino)carbonyl]amino}-2,2-dimethylpropyl)benzamide] | 229 to 230 °C | – |
| O=C(NC(NC(=S)Nc1cccnc1)C(Cl)(Cl)Cl)c1ccc(I)cc1 (stereo not drawn) [Example 148, 4-iodo-N-(2,2,2-trichloro-1-{[(3-pyridinylamino)carbothioyl]amino}ethyl)benzamide] | – | EC50 [1]: 96 nM; Emax [1]: 61%; Index [2]: 0.082; EC50 [2]: 1100 nM; Emax [2]: 78% |
| O=C(CCc1ccccc1)NC(NC(=S)Nc1cccc([N+](=O)[O-])c1)C(Cl)(Cl)Cl (stereo not drawn) [Example 149, 3-phenyl-N-(2,2,2-trichloro-1-{[(3-nitroanilino)carbothioyl]amino}ethyl)propanamide] | – | EC50 [1]: 84 nM; Emax [1]: 129%; Index [2]: 0.076; EC50 [2]: 2400 nM; Emax [2]: 95% |

Continued, in another order:

| melting point | SMILES | further results |
| --- | --- | --- |
| 193 to 194 °C | Cc1ccc(C(=O)NC(NC(=NC#N)Nc2cccc(F)c2)C(C)(C)C)cc1 (stereo not drawn) [Example 53, N-(1-{[(cyanoimino)(3-fluoroanilino)methyl]amino}-2,2-dimethylpropyl)-4-methylbenzamide] | – |
| 194 to 196 °C | Cc1ccc(C(=O)NC(NC(=NC#N)Nc2ccc(Cl)nc2)C(C)(C)C)cc1 (stereo not drawn) [Example 55, N-(1-{[[(6-chloro-3-pyridinyl)amino](cyanoimino)methyl]amino}-2,2-dimethylpropyl)-4-methylbenzamide] | – |
| 208 to 209 °C | CC(C)(C)C(NC(=O)c1ccc(Cl)cc1)NC(=NC#N)Nc1ccccc1F (stereo not drawn) [Example 69, 4-chloro-N-(1-{[(cyanoimino)(2-fluoroanilino)methyl]amino}-2,2-dimethylpropyl)benzamide] | – |
| 184 to 186 °C | CC(C)(C)C(NC(=O)c1ccc(Cl)cc1)NC(=NC#N)Nc1cccc(C(F)(F)F)c1 (stereo not drawn) [Example 71, 4-chloro-N-[1-({(cyanoimino)[3-(trifluoromethyl)anilino]methyl}amino)-2,2-dimethylpropyl]benzamide] | – |
| 196 to 198 °C | CC(C)(C)C(NC(=O)c1ccc(Cl)cc1)NC(=NC#N)Nc1cc(F)cc(F)c1 (stereo not drawn) [Example 72, 4-chloro-N-(1-{[(cyanoimino)(3,5-difluoroanilino)methyl]amino}-2,2-dimethylpropyl)benzamide] | – |
| 196 to 198 °C | CC(C)(C)C(NC(=O)c1ccc(Cl)cc1)NC(=NC#N)Nc1cc(F)ccc1F (stereo not drawn) [Example 73, 4-chloro-N-(1-{[(cyanoimino)(2,5-difluoroanilino)methyl]amino}-2,2-dimethylpropyl)benzamide] | – |
| 211 to 213 °C | CC(C)(C)C(NC(=O)c1ccc(Cl)cc1)NC(=NC#N)Nc1c(F)cccc1F (stereo not drawn) [Example 74, 4-chloro-N-(1-{[(cyanoimino)(2,6-difluoroanilino)methyl]amino}-2,2-dimethylpropyl)benzamide] | – |
| 158 to 160 °C | CC(C)(C)C(NC(=O)c1ccc(Cl)cc1)NC(=NC#N)Nc1cccc(Cl)c1 (stereo not drawn) [Example 75, 4-chloro-N-(1-{[(cyanoimino)(3-chloroanilino)methyl]amino}-2,2-dimethylpropyl)benzamide] | – |
| 173 to 175 °C | COc1cccc(NC(=NC#N)NC(NC(=O)c2ccc(Cl)cc2)C(C)(C)C)c1 (stereo not drawn) [Example 76, 4-chloro-N-(1-{[(cyanoimino)(3-methoxyanilino)methyl]amino}-2,2-dimethylpropyl)benzamide] | – |
| 180 to 182 °C | CC(C)(C)C(NC(=O)c1ccc(Cl)cc1)NC(=NC#N)NCc1ccccc1Cl (stereo not drawn) [Example 77, 4-chloro-N-(1-{[[(2-chlorobenzyl)amino](cyanoimino)methyl]amino}-2,2-dimethylpropyl)benzamide] | – |
| 178 to 180 °C | CC(C)(C)C(NC(=O)c1ccc(Cl)cc1)NC(=NC#N)NCc1cccc(Cl)c1 (stereo not drawn) [Example 78, 4-chloro-N-(1-{[[(3-chlorobenzyl)amino](cyanoimino)methyl]amino}-2,2-dimethylpropyl)benzamide] | – |
| 173 to 175 °C | CC(C)(C)C(NC(=O)c1ccc(Cl)cc1)NC(=NC#N)NCc1ccc(Cl)cc1 (stereo not drawn) [Example 79, 4-chloro-N-(1-{[[(4-chlorobenzyl)amino](cyanoimino)methyl]amino}-2,2-dimethylpropyl)benzamide] | – |
| 188 to 189 °C | CC(C)(C)C(NC(=O)c1ccc(Cl)cc1)NC(=NC#N)NCc1cccnc1 (stereo not drawn) [Example 80, 4-chloro-N-[1-({(cyanoimino)[(3-pyridinylmethyl)amino]methyl}amino)-2,2-dimethylpropyl]benzamide] | – |
| 189 to 191 °C | CC(C)(C)C(NC(=O)c1ccc(Cl)cc1)NC(=NC#N)NCc1ccncc1 (stereo not drawn) [Example 81, 4-chloro-N-[1-({(cyanoimino)[(4-pyridinylmethyl)amino]methyl}amino)-2,2-dimethylpropyl]benzamide] | – |
| 184 to 185 °C | CC(C)(C)C(NC(=O)c1ccc(Cl)cc1)NC(=NC#N)NCc1ccccn1 (stereo not drawn) [Example 82, 4-chloro-N-[1-({(cyanoimino)[(2-pyridinylmethyl)amino]methyl}amino)-2,2-dimethylpropyl]benzamide] | – |
| 195 to 196 °C | CC(C)(C)C(NC(=O)c1ccc(F)cc1)NC(=NC#N)Nc1cccnc1 (stereo not drawn) [Example 107, N-(1-{[(cyanoimino)(3-pyridinylamino)methyl]amino}-2,2-dimethylpropyl)-4-fluorobenzamide] | – |
